Counter-ions that a name gives are not always drawn.
Legend:
[1] = molecular target: T1, placental αvβ3 (Homo sapiens, UniProt P05106+P06756); assay: Fibrinogen binding to immobilized αvβ3; conditions: biotinylated-fibrinogen 10 nM, immobilized placental αvβ3; read-out: IC50 values for the fibrinogen binding assay αvβ3
T1 construct: purified active GP IIb-IIIa (Calbiochem) or olacental αvβ3 at 0.5 μg/ml; from tissue; host or cells: placenta
Procedure: (§1) Nonbound fibrinogen was removed by five washes with binding buffer. Avidin conjugated to alkaline phosphatase (Sigma), diluted in binding buffer, was added and incubated for two hours at 37° C. The plates were washed five times with binding buffer, and after addition of the substrate PNPP (Pierce), the enzyme activity was measured by the absorbance at 405 nm.

[2] = molecular target: T2, GP IIb-IIIa (αIIbβ3) (Homo sapiens, UniProt P05106+P08514); assay: Fibrinogen binding to immobilized GP IIb-IIIa (αIIbβ3); conditions: biotinylated-fibrinogen 10 nM, immobilized GP IIb-IIIa; read-out: IC50 values for the fibrinogen binding assay αIIbβ3
T2 construct: purchased Calbiochem
Procedure: as §1

T1 sequence (P06756 31-889 limits assumed): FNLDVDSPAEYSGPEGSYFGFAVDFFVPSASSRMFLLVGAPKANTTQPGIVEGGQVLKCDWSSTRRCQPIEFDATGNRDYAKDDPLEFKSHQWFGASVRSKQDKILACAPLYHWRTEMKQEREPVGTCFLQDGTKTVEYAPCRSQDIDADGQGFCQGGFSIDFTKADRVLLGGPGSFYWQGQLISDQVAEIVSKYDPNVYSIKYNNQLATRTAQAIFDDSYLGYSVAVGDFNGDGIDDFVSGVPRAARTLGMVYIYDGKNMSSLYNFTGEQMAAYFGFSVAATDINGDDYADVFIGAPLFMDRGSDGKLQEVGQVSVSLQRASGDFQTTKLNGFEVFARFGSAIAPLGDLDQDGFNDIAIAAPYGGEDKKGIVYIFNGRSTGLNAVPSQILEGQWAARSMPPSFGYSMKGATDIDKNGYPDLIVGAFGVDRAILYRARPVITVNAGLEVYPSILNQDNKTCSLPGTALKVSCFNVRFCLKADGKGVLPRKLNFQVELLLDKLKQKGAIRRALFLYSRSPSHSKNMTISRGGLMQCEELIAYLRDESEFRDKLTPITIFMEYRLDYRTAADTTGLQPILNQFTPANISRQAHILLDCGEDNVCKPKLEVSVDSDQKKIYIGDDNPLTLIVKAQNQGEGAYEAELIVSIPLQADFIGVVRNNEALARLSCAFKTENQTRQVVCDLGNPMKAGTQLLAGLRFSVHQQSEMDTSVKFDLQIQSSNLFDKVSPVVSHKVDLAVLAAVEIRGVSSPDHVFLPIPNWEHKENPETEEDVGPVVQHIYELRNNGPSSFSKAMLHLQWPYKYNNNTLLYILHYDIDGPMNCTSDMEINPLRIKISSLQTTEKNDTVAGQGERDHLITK
T1 sequence (P06756 891-1048 partner limits assumed): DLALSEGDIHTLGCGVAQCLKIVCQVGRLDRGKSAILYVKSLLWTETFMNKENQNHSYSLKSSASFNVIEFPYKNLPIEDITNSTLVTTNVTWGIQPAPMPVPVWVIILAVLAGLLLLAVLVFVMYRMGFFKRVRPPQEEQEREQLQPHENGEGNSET
T1 sequence (P05106 27-788): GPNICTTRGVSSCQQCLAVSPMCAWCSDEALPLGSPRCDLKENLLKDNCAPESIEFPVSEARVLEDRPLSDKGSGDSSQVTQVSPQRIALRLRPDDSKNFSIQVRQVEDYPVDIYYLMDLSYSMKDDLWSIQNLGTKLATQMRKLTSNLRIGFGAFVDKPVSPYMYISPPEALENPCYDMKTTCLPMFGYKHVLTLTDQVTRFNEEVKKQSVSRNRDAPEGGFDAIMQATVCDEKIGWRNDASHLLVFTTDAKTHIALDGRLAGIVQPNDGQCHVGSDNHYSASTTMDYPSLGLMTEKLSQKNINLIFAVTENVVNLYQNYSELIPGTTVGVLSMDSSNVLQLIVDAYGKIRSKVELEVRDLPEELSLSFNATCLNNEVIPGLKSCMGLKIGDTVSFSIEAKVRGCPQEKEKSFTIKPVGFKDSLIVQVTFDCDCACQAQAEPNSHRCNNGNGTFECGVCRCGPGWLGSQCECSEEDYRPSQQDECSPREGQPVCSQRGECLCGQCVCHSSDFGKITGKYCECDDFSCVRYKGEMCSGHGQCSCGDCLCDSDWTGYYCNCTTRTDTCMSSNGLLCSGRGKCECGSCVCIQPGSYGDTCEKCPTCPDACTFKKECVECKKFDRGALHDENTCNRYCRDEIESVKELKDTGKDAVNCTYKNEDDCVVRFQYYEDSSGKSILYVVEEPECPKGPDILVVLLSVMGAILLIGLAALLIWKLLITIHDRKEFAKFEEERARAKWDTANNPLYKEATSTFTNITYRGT
T2 sequence (P08514 32-887 limits assumed): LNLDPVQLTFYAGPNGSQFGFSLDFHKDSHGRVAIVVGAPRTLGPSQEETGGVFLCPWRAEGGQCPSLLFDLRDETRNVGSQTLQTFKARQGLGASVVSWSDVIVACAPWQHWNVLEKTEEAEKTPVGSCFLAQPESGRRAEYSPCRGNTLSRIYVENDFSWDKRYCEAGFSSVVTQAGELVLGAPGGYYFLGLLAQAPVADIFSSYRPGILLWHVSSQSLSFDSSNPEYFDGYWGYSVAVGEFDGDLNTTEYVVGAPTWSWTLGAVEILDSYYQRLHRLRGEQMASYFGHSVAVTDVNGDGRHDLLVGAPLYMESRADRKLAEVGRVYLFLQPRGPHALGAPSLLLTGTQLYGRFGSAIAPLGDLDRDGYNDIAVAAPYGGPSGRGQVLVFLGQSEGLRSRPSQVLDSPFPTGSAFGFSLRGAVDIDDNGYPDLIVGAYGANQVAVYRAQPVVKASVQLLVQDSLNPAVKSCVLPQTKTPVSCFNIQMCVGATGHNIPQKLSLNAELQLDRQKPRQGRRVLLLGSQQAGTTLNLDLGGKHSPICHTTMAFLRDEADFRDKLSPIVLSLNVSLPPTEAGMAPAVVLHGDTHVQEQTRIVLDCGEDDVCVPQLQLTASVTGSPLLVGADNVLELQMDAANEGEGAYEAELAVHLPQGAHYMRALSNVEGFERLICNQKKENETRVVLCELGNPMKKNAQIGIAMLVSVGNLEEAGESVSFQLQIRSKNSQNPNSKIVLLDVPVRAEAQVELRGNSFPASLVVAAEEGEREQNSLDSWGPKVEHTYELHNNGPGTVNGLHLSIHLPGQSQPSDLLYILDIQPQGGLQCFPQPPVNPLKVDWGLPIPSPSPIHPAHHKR
T2 sequence (P08514 891-1039 partner limits assumed): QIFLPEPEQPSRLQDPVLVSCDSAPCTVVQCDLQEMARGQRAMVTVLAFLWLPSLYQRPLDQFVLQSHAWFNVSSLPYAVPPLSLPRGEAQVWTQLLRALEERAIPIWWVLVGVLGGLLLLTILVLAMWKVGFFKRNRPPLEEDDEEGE
T2 sequence (P05106 27-788): as the sequence (P05106 27-788) above

Compound	IC50 [1] [µM]	IC50 [2] [µM]
NCCCOc1ccc2cc(C(=O)O)cc(=O)n2c1 [Compound XIII, 7-(3-Amino-propoxy)-4-oxo-4H-quinolizine-2-carboxylic Acid Trifluoroacetic Acid Salt]	> 100	5.3
NCCCCCOc1ccc2ccc(C(=O)NC[C@H](NS(=O)(=O)c3ccccc3)C(=O)O)c(=O)n2c1 [Compound I, (S)-2-Benzenesulfonylamino-3-{[7-(5-aminopentyloxy)-4-oxo-4H-quinolizine-3-carbonyl]-amino}-propionic Acid TFA Salt]	44	0.058
NCCNc1ccn2c(=O)c(C(=O)NC(CC(=O)O)c3ccccc3)ccc2c1 (racemic) [Compound XXXVI, (+/−)-3-{[8-(2-Amino-ethylamino)-4-oxo-4H-quinolizine-3-carbonyl]-amino}-3-phenyl-propionic Acid]	19	10
NCCCCOc1ccn2c(=O)cc(C(=O)NC[C@H](NS(=O)(=O)c3ccccc3)C(=O)O)cc2c1 [Compound XXXII, (S)-3-{[8-(4-Amino-butoxy)-4-oxo-4H-quinolizine-2-carbonyl]-amino}-2-benzenesulfonylamino-propionic Acid Trifluoroacetic Acid Salt]	12	0.0055
O=C(O)CC(NC(=O)c1ccc2ccc(OCCCNC(=O)OCc3ccccc3)cn2c1=O)c1ccccc1 (racemic) [Compound XI, (+/−)-3-{[7-(3-Benzyloxycarbonylamino-propoxy)-4-oxo-4H-quinolizine-3-carbonyl]-amino}-3-phenyl-propionic Acid]	20	20
O=C(O)CC(NC(=O)c1ccc2ccc(OCCCNC(=O)NCc3ccccc3)cn2c1=O)c1ccccc1 (racemic) [Compound X]	67	29
NCCCOc1ccc2cc(C(=O)NC[C@H](NS(=O)(=O)c3ccccc3)C(=O)O)cc(=O)n2c1 [Compound XIV, (S)-3-{[7-(3-Amino-propoxy)-4-oxo-4H-quinolizine-2-carbonyl]-amino}-2-benzenesulfonylamino-propionic Acid Trifluoroacetic Acid Salt]	17	0.00038
NCCCOc1ccc2ccc(NC(=O)NC[C@H](NS(=O)(=O)c3ccccc3)C(=O)O)c(=O)n2c1 [Compound VII, (S)-3-{3-[7-(3-Amino-propoxy)-4-oxo-4H-quinolizin-3-yl]-ureido}-2-Benzenesulfonylamino-propionic Acid]	92	0.0018
O=C(NC[C@H](NS(=O)(=O)c1ccccc1)C(=O)O)Nc1ccc2ccc(OCCCNC(=O)OCc3ccccc3)cn2c1=O [Compound VI, (S)-2-Benzenesulfonylamino-3-{3-[7-(3-benzyloxycarbonylamino-propoxy)-4-oxo-4H-quinolizine-3-yl]-ureido}-propionic Acid]	> 100	1.8
N=C(N)NCCCCOc1ccn2c(=O)cc(C(=O)NC[C@H](NS(=O)(=O)c3ccccc3)C(=O)O)cc2c1 [Compound XXXIII, (S)-2-Benzenesulfonylamino-3-{[8-(4-guanidino-butoxy)-4-oxo-4H-quinolizine-2-carbonyl]-amino}-propionic Acid Hydrochloride]	15	0.044
N=C(N)NCCCCCOc1ccc2ccc(C(=O)NC[C@H](NS(=O)(=O)c3ccccc3)C(=O)O)c(=O)n2c1 [Compound II, (S)-2-Benzenesulfonylamino-3-{[7-(5-guanidino-pentyloxy)-4-oxo-4H-quinolizine-3-carbonyl]-amino}-propionic Acid Hydrochloride]	24	3.9

More lines, in order of falling IC50 [1], values ahead:

IC50 [1] [µM]	IC50 [2] [µM]	Compound
17	0.11	NCCCOc1ccn2c(=O)cc(C(=O)NC[C@H](NS(=O)(=O)c3ccccc3)C(=O)O)cc2c1 [Compound XXX, (S)-3-{[8-(3-Amino-propoxy)-4-oxo-4H-quinolizine-2-carbonyl]-amino}-2-benzenesulfonylamino-propionic Acid Trifluoroacetic Acid Salt]
17	0.23	N=C(N)NC1CCC(Nc2ccn3c(=O)c(C(=O)NC(CC(=O)O)c4ccccc4)ccc3c2)CC1 (racemic) [Compound XLI, (+/−)-3-{[8-(4-Guanidino-cyclohexylamino)-4-oxo-4H-quinolizine-3-carbonyl]-amino}-3-phenyl-propionic Acid Trifluoroacetic Acid Salt]
17	0.016	NCCCCCOc1ccn2c(=O)cc(C(=O)NC[C@H](NS(=O)(=O)c3ccccc3)C(=O)O)cc2c1 [Compound XXXIV, (S)-3-{[8-(S-Amino-pentyloxy)-4-oxo-4H-quinolizine-2-carbonyl]-amino}-2-benzenesulfonylamino-propionic Acid Trifluoroacetic Acid Salt]
15	1.5	N=C(N)NCCCCCOc1ccn2c(=O)cc(C(=O)NC[C@H](NS(=O)(=O)c3ccccc3)C(=O)O)cc2c1 [Compound XXXV, (S)2-Benzenesulfonylamino-3-{[8-(5-guanidino-pentyloxy)-4-oxo-4H-quinolizine-2-carbonyl]-amino}propionic Acid Hydrochloride]
14	0.074	NCCCOc1ccc2cc(C(=O)NC[C@H](Nc3ncccn3)C(=O)O)cc(=O)n2c1 (stereo in doubt) [Compound XXI, 3-{[7-(3-Amino-propoxy)-4-oxo-4H-quinolizine-2 carbonyl]-amino}-2-(pyrimidin-2-ylamino)-propionic Acid Hydrochloride]
13	0.045	O=C(O)CC(NC(=O)c1ccc2cc(NCCSC(=S)Nc3cccnc3)ccn2c1=O)c1ccccc1 (racemic) [Compound XXXVIII, (+/−)-3-({4-Oxo-8-[2-(pyridin-3-ylthiocarbamoylsulfanyl)-ethylamino]4H-quinolizine-3-carbonyl}-amino)-3-phenyl-propionic acid trifluoroacetic acid salt]
9.4	0.024	N=C(N)NCCCOc1ccn2c(=O)cc(C(=O)NC[C@H](NS(=O)(=O)c3ccccc3)C(=O)O)cc2c1 [Compound XXXI, (S)-2-Benzenesulfonylamino-3-{[8-(3-guanidino-propoxy)-4-oxo-4H-quinolizine-2-carbonyl]-amino)-propionic Acid Hydrochloride]
8.7	0.033	N=C(N)NCCCOc1ccc2ccc(C(=O)NC[C@H](NS(=O)(=O)c3ccccc3)C(=O)O)c(=O)n2c1 [Compound IV, (S)-2-Benzenesulfonylamino-3-{[7-(3-guanidino-propoxy)-4-oxo-4H-quinolizine-3-carbonyl]-amino}-propionic Acid Hydrochloride]
8.2	0.17	N=C(N)SCCNc1ccn2c(=O)c(C(=O)NC(CC(=O)O)c3ccccc3)ccc2c1 (racemic) [Compound XXXVII, (+/−)-3-{[8-(2-Carbamimidoylsulfanyl-ethylamino)-4-oxo-4H-quinolizine-3-carbonyl]-amino}-3-phenyl-propionic Acid Trifluoroacetic Acid Salt]
4	23	N=C(N)NCc1ccc2cc(C(=O)NC(CC(=O)O)c3cc(Cl)cc(Cl)c3)cc(=O)n2c1 (racemic) [Compound XLII, (+/−)-3-(3,5-Dichlorophenyl)-3-((7-guanidinomethyl-4-oxo-4H-quinolizine-2-carbonyl)-amino]-propionic acid trifluoroacetic acid salt]
1.3	0.0096	N=C(N)NCCCOc1ccc2ccc(NC(=O)NC[C@H](NS(=O)(=O)c3ccccc3)C(=O)O)c(=O)n2c1 [Compound IX, (S)-2-Benzenesulfonylamino-3-{3-[7-(3-guanidino-propoxy)-4-oxo-4H-quinolizin-3-yl]-ureido}-propionic Acid Trifluoroacetate Salt]
1.2	3.5	N=C(N)NCCCOc1ccc2ccc(NC(=O)NC(CC(=O)O)c3cccnc3)c(=O)n2c1 (racemic) [Compound VIII, (+/−)-3-{3-[7-(3-Guanidino-propoxy)-4-oxo-4H-quinolizin-3-yl]-ureido}-3-pyridin-3-yl-propionic Acid]
0.91	0.85	O=C(NCc1ccc2cc(C(=O)NC[C@H](NS(=O)(=O)c3ccccc3)C(=O)O)cc(=O)n2c1)OCc1ccccc1 [Compound XLV, (S)-2-Benzenesulfonylamino-3-([(7-benzyloxycarbonylamino-methyl)-4-oxo-4H-quinolizine-2-carbonyl]-amino)-propionic acid]
0.54	0.045	N=C(N)NCCCOc1ccc2cc(C(=O)NCC(Nc3ncccn3)C(=O)O)cc(=O)n2c1 (stereo not drawn) [Compound XXII, 3-{[7-(3-Guanidino-propoxy)-4-oxo-4H-quinolizine-2-carbonyl]-amino}-2-(pyrimidin-2-ylamino)-propionic Acid Hydrochloride]
0.37	0.1	NCC1CCc2cc(C(=O)NCC(NS(=O)(=O)c3ccccc3)C(=O)O)cc(=O)n2C1 [Compound XXVIII, (2S, 7R) and (2S, 7S)-3-[(7-Aminomethyl-4-oxo-6,7,8,9-tetrahydro-4H-quinolizine-2-carbonyl)-amino]-2-benzenesulfonylamino-propionic Acid Trifluoroacetic Acid Salt]
0.006	4.85	O=C(NCc1ccccc1)NCc1ccc2cc(C(=O)NC[C@H](NS(=O)(=O)c3ccccc3)C(=O)O)cc(=O)n2c1 [Compound XLVII, (S)-2-Benzenesulfonylamino-3-{[7-(3-benzyl-ureidomethyl)-4-oxo-4H-quinolizine-2-carbonyl]-amino}-propionic acid]
